Article PMC11876601 (Molecular Systems Biology, 2025)
Read-outs that look alike come from different tables or passages of the source.

How the values were obtained:
[1] = test system: 30 PDAC cell lines; conditions: ref Jaaks et al, 2022; cited from earlier work
[2] = test system: PANC-1; test: cells; design: Viability of PDAC cell lines, ATPlite luminescence, 11-dose single-agent curve fit; conditions: Homo sapiens, PANC-1, 72 h, read-out: EC50 [nM]
Procedure, shortened: (§1)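 screening used cells plated at 1000 to 5000 per well one day before treatment. Final DMSO was 0.2%. Each plate held untreated negative-control wells and 5 µM staurosporine positive-control wells.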

[3] = test system: AsPC-1; test: cells; design: Viability of PDAC cell lines, ATPlite luminescence, 11-dose single-agent curve fit; conditions: Homo sapiens, ASPC1, 72 h, read-out: EC50 [nM]
Procedure, shortened: as §1

[4] = test system: Capan-1; test: cells; design: Viability of PDAC cell lines, ATPlite luminescence, 11-dose single-agent curve fit; conditions: Homo sapiens, CAPAN-1, 72 h, read-out: EC50 [nM]
Procedure, shortened: as §1

[5] = test system: MiaPaCa-2; test: cells; design: Viability of PDAC cell lines, ATPlite luminescence, 11-dose single-agent curve fit; conditions: Homo sapiens, MIA PaCa-2, 72 h, read-out: EC50 [nM]
Procedure, shortened: as §1

[6] = test system: HuP-T4; test: cells; design: Viability of PDAC cell lines, ATPlite luminescence, 11-dose single-agent curve fit; conditions: Homo sapiens, HuP-T4, 72 h, read-out: EC50 [nM]
Procedure, shortened: as §1

[7] = test system: PaTu-8988-T; test: cells; design: Viability of PDAC cell lines, ATPlite luminescence, 11-dose single-agent curve fit; conditions: Homo sapiens, PaTu 8988t, 72 h, read-out: EC50 [nM]
Procedure, shortened: as §1

[8] = test system: PSN-1; test: cells; design: Viability of PDAC cell lines, ATPlite luminescence, 11-dose single-agent curve fit; conditions: Homo sapiens, PSN1, 72 h, read-out: EC50 [nM]
Procedure, shortened: as §1

[9] = test system: advanced PDAC patients; design: method as in Moore et al, 2007; conditions: Erlotinib + GEM, ref Moore et al, 2007; cited from earlier work
[10] = test system: FAMPAC; test: cells; design: ATPlite luminescence viability of PDAC cell lines, 11-dose single-agent curves, 4-parameter fit; conditions: 72 h, read-out: EC50 [nM]
Procedure, shortened: (§2)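 Drug-combination screening used cells plated at 1000 to 5000 per well one day before treatment. Final DMSO was 0.2%. Each plate held untreated negative-control wells and 5 µM staurosporine positive-control wells.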

[11] = test system: BxPC-3; test: cells; design: ATPlite luminescence viability of PDAC cell lines, 11-dose single-agent curves, 4-parameter fit; conditions: Homo sapiens, BXPC-3, 72 h, read-out: EC50 [nM]
Procedure, shortened: as §2

[12] = test system: Colo-357; test: cells; design: ATPlite luminescence viability of PDAC cell lines, 11-dose single-agent curves, 4-parameter fit; conditions: Homo sapiens, COLO357, 72 h, read-out: EC50 [nM]
Procedure, shortened: as §2

[13] = test system: HPDE; test: cells; design: ATPlite luminescence viability of PDAC cell lines, 11-dose single-agent curves, 4-parameter fit; conditions: HPDE, 72 h, read-out: EC50 [nM]
Procedure, shortened: as §2

[14] = test system: Suit2-07; test: cells; design: ATPlite luminescence viability of PDAC cell lines, 11-dose single-agent curves, 4-parameter fit; conditions: 72 h, read-out: EC50 [nM]
Procedure, shortened: as §2

[15] = test system: Dan-G; test: cells; design: ATPlite luminescence viability of PDAC cell lines, 11-dose single-agent curves, 4-parameter fit; conditions: 72 h, read-out: EC50 [nM]
Procedure, shortened: as §2

[16] = test system: 13 PDAC cell lines; test: Phenotypic drug combination viability screen (ATPlite, 72 h), cell line panel; type: cell-based, human; conditions: of 13 cell lines; Bliss model
Description: Cell viability was assessed by measuring ATP levels to indicate metabolic activity.
Afterward, small amounts were transferred to 384-well intermediate plates (Greiner Bio-One GmbH, Germany). […] For drug combination screening, 1000 to 5000 cells were seeded into 384-well plates (CulturPlate™, Perkin Elmer, MA, USA) using a Multidrop™ Combi Reagent Dispenser (Thermo Scientific, MA, USA) in 50 µl medium per well 24 h prior to drug treatment (seeding densities see Appendix Table S1). […] The final DMSO concentration in each well was 0.2%. […] Eight wells per plate without library drug served as negative controls, and sixteen wells per plate containing 5 µM Staurosporine served as positive controls. Control plates not containing any drug were used to correct for incubation effects, and data quality was assessed by calculation of Z-prime of positive and negative controls according to1 Z-prime=1−3SDpos+3SDneg/[…] where SD is the standard deviation. […] Dose–response curves from the experimental and hypothetical data were compared, and shifts in AUC were used to describe combination effects (AUC∆ = AUChypothetical − AUCexperimental). […] Only combinations with R^2 > 0.8 in both conditions were considered in the synergy analysis.

[17] = test system: AsPC-1; test: cells; design: ATPlite luminescence viability of PDAC cell lines, 11-dose single-agent curves, 4-parameter fit; conditions: Homo sapiens, ASPC1, 72 h, read-out: EC50 [nM]
Procedure, shortened: as §2

[18] = test system: Capan-1; test: cells; design: ATPlite luminescence viability of PDAC cell lines, 11-dose single-agent curves, 4-parameter fit; conditions: Homo sapiens, CAPAN-1, 72 h, read-out: EC50 [nM]
Procedure, shortened: as §2

[19] = test system: MiaPaCa-2; test: cells; design: ATPlite luminescence viability of PDAC cell lines, 11-dose single-agent curves, 4-parameter fit; conditions: Homo sapiens, MIA PaCa-2, 72 h, read-out: EC50 [nM]
Procedure, shortened: as §2

[20] = test system: HuP-T4; test: cells; design: ATPlite luminescence viability of PDAC cell lines, 11-dose single-agent curves, 4-parameter fit; conditions: Homo sapiens, HuP-T4, 72 h, read-out: EC50 [nM]
Procedure, shortened: as §2

[21] = test system: PaTu-8988-T; test: cells; design: ATPlite luminescence viability of PDAC cell lines, 11-dose single-agent curves, 4-parameter fit; conditions: Homo sapiens, PaTu 8988t, 72 h, read-out: EC50 [nM]
Procedure, shortened: as §2

[22] = test system: PSN-1; test: cells; design: ATPlite luminescence viability of PDAC cell lines, 11-dose single-agent curves, 4-parameter fit; conditions: Homo sapiens, PSN1, 72 h, read-out: EC50 [nM]
Procedure, shortened: as §2

[23] = target: MAP3K4; conditions: cited from earlier work; for Kd: read-out: KDapp
[24] = test system: EPHB6; design: method as in Klaeger et al. (2017); conditions: EPHB6, 4 cell line mix lysate, Kinobeads y, ref Klaeger et al. (2017), cited from earlier work
[25] = test system: GRB2; design: method as in Klaeger et al. (2017); conditions: GRB2, 4 cell line mix lysate, Kinobeads y, ref Klaeger et al. (2017), cited from earlier work
[26] = target: CSNK2B; conditions: 4 cell line mix lysate, Kinobeads y, ref Klaeger et al. (2017), cited from earlier work
[27] = test system: TBK1; conditions: TBK1, 4 cell line mix lysate, Kinobeads y, ref Klaeger et al. (2017); cited from earlier work
[28] = test system: ABL1; conditions: ABL1, 4 cell line mix lysate, Kinobeads y, ref Klaeger et al. (2017); cited from earlier work
[29] = target: ADK; conditions: 4 cell line mix lysate, Kinobeads y, ref Klaeger et al. (2017), cited from earlier work
[30] = target: EIF3J; conditions: 4 cell line mix lysate, Kinobeads y, ref Klaeger et al. (2017), cited from earlier work
[31] = target: GAK; conditions: 4 cell line mix lysate, Kinobeads y, ref Klaeger et al. (2017), cited from earlier work
[32] = target: BCR; conditions: 4 cell line mix lysate, Kinobeads y, ref Klaeger et al. (2017), cited from earlier work
[33] = test system: CSNK2A2; conditions: CSNK2A2, 4 cell line mix lysate, Kinobeads y, ref Klaeger et al. (2017), cited from earlier work
[34] = test system: IKBKE; conditions: 4 cell line mix lysate, Kinobeads y, ref Klaeger et al. (2017); cited from earlier work
[35] = test system: WEE1; conditions: WEE1, 4 cell line mix lysate, Kinobeads y, ref Klaeger et al. (2017); cited from earlier work
[36] = test system: NEK3; design: method as in Klaeger et al. (2017); conditions: NEK3, 4 cell line mix lysate, Kinobeads y, ref Klaeger et al. (2017), cited from earlier work
[37] = test system: ADCK1; design: method as in Klaeger et al. (2017); conditions: ADCK1, 4 cell line mix lysate, Kinobeads y, ref Klaeger et al. (2017), cited from earlier work
[38] = target: TANK; conditions: 4 cell line mix lysate, Kinobeads y, ref Klaeger et al. (2017), cited from earlier work
[39] = test system: INPPL1; design: method as in Klaeger et al. (2017); conditions: INPPL1, 4 cell line mix lysate, Kinobeads y, ref Klaeger et al. (2017), cited from earlier work
[40] = test system: CSNK2A1;CSNK2A3; conditions: CSNK2A1;CSNK2A3, 4 cell line mix lysate, Kinobeads y, ref Klaeger et al. (2017), cited from earlier work
[41] = test system: TBKBP1; conditions: TBKBP1, 4 cell line mix lysate, Kinobeads y, ref Klaeger et al. (2017), cited from earlier work
[42] = test system: AZI2; conditions: AZI2, 4 cell line mix lysate, Kinobeads y, ref Klaeger et al. (2017), cited from earlier work
[43] = MAP3K4, 4 cell line mix lysate, Kinobeads y, ref Klaeger et al. (2017)

NC(=O)Nc1cc(-c2cccc(F)c2)sc1C(=O)N[C@H]1CCCNC1 [AZD7762]
synergy with GEM [1]: nearly half of the cell lines

C#Cc1cccc(Nc2ncnc3cc(OCCOC)c(OCCOC)cc23)c1 [Erlotinib]
EC50 [2]: 36.8 nM
EC50 [3]: > 10000 nM
EC50 [4]: 2940 nM
EC50 [5]: 4050 nM
EC50 [6]: 8400 nM
EC50 [7]: 5260 nM
EC50 [8]: 5920 nM
improvement of overall survival over GEM alone [9]: two weeks
EC50 [10]: 3940 nM
EC50 [11]: 2060 nM
EC50 [12]: 1040 nM
EC50 [13]: 552 nM
EC50 [14]: > 10000 nM
EC50 [15]: 630 nM

C=CCn1c(=O)c2cnc(Nc3ccc(N4CCN(C)CC4)cc3)nc2n1-c1cccc(C(C)(C)O)n1 [Adavosertib]
synergy with GEM [1]: to a lesser extent
EC50 [10]: 268 nM
EC50 [17]: 171 nM
EC50 [18]: 327 nM
EC50 [19]: 244 nM
EC50 [12]: 135 nM
EC50 [13]: 946 nM
EC50 [20]: 5570 nM
EC50 [14]: 206 nM
EC50 [21]: 154 nM
EC50 [15]: 147 nM
EC50 [22]: 464 nM
Kd ([23]; Kinobeads, ref Klaeger et al, 2017a, Reinecke et al, 2023a): 52 nM

C=CCn1c(=O)c2cnc(Nc3ccc(N4CCN(C)CC4)cc3)nc2n1-c1cccc(C(C)(C)O)n1 [Adavosertib (MK-1775)]
EC50 [24]: 549 nM
pKDapp [24]: 6.47
Kd ([24]; read-out: KDapp): 337 nM
EC50 [25]: 2710 nM
EC50 [28]: 6340 nM
Kd ([29]; read-out: KDapp): 12.6 nM
EC50 [29]: 12.6 nM
pKDapp [29]: 7.90
Kd ([30]; read-out: KDapp): 500 nM
EC50 [30]: 500 nM
pKDapp [30]: 6.30
EC50 [31]: 745 nM
EC50 [32]: 3990 nM
EC50 [33]: 428 nM
EC50 [36]: 980 nM
pKDapp [36]: 6.08
Kd ([36]; read-out: KDapp): 837 nM
EC50 [37]: 3050 nM
EC50 [38]: 2870 nM
EC50 [39]: 1470 nM
pKDapp [39]: 6.15
Kd ([39]; read-out: KDapp): 712 nM
EC50 [40]: 627 nM
pKDapp [40]: 6.20
Kd ([40]; read-out: KDapp): 627 nM
EC50 [41]: 2180 nM
EC50 [23, 43]: 77.5 nM
pKDapp [23, 43]: 7.28
Kd [23, 43]: 52 nM
pKDapp [42]: 5.91
Kd ([42]; read-out: KDapp): 1230 nM
